Assay results reported in publication PMC8954523 (Pharmaceutics, 2022).

Columns and labels:
[1] = Hypothetical transfer thermodynamic functions from solvation functions; type: physicochemical; conditions: water → n-hexane
[2] = Dissolution and solvation thermodynamic functions (van't Hoff; solubility minus sublimation); type: physicochemical
Experimental: The dissolution thermodynamic parameters on the standard state were determined using mole fraction unitary units. […] Since the resulting solutions are very dilute, and their densities are very close to those of the pure solvents. The density values of the pure solvents were used in calculations (Table S1). […] The temperature dependences of the experimental solubility were treated mathematically by the van't Hoff equation, and the apparent solution enthalpies ΔHsol0 were determined as follows:(3) ∂(lnX2)/∂T=ΔHsol0/RT^2 […] Next, the apparent solution entropies ΔSsol0 were derived by the equation:(5) ΔGsol0=ΔHso[…] The solvation of one mole of the solute molecules in the solvent can be defined as the total change of the standard thermodynamic functions ( ΔGsolv0 , ΔHsolv0 , ΔSsolv0 ) of the compound upon transferring it from the gaseous phase (ideal gas; single molecules without interaction) into the solvent. The transfer process can be presented as the difference between the dissolution and sublimation thermodynamic functions by:(6) ΔYsolv0=ΔYso[…] where ΔY^0 is the standard change of any of the thermodynamic functions (ΔG^0, ΔH^0, ΔS^0) of solvation ( ΔYsolv0 ), dissolution ( ΔYsol0 ) or sublimation ( ΔYsubo ).

[3] = Table S6, 1-octanol, all studied temperatures
[4] = Table S6, ethanol, all studied temperatures

CC(O)(CS(=O)(=O)c1ccc(F)cc1)C(=O)Nc1ccc(C#N)c(C(F)(F)F)c1 (stereo not shown) [BCL, bicalutamide]
ΔGtr [1]: −4.8 kJ⋅mol^−1 | TΔSsol0 ([2]; 1-octanol, 298.15 K): 0.263 kcal/mol | ΔGsol0 ([2]; 1-octanol, 298.15 K): 4.9 kcal/mol | ΔHsol0 ([2]; 1-octanol, 298.15 K): 5.16 ± 0.096 kcal/mol | ΔSsol0 ([2]; 1-octanol, 298.15 K): 3.7 ± 3.6 J∙mol^−1·K^−1 | ζHsolv ([2]; 1-octanol, 298.15 K): 63.3% | ζTSsolv ([2]; 1-octanol, 298.15 K): 36.7% | −TΔSsolv0 ([2]; 1-octanol, 298.15 K): 14.3 kcal/mol | −ΔGsolv0 ([2]; 1-octanol, 298.15 K): 10.3 kcal/mol | −ΔHsolv0 ([2]; 1-octanol, 298.15 K): 24.64 kcal/mol | −ΔSsolv0 ([2]; 1-octanol, 298.15 K): 200.9 J∙mol^−1·K^−1 | TΔSsol0 ([2]; Table S6, 1-octanol, 293.15 K): 0.265 kcal/mol | ΔGsol0 ([2]; Table S6, 1-octanol, 293.15 K): 4.897 kcal/mol | ΔSsol0 ([2]; Table S6, 1-octanol, 293.15 K): 3.79 J∙mol-1·K-1 | ζTSsolv ([2]; Table S6, 1-octanol, 293.15 K): 36.74% | −TΔSsolv0 ([2]; Table S6, 1-octanol, 293.15 K): 14.31 kcal/mol | −ΔGsolv0 ([2]; Table S6, 1-octanol, 293.15 K): 10.33 kcal/mol | TΔSsol0 ([2]; Table S6, 1-octanol, 298.15 K): 0.265 kcal/mol | ΔGsol0 ([2]; Table S6, 1-octanol, 298.15 K): 4.897 kcal/mol | ΔSsol0 ([2]; Table S6, 1-octanol, 298.15 K): 3.73 J∙mol-1·K-1 | ζTSsolv ([2]; Table S6, 1-octanol, 298.15 K): 36.74% | −TΔSsolv0 ([2]; Table S6, 1-octanol, 298.15 K): 14.31 kcal/mol | −ΔGsolv0 ([2]; Table S6, 1-octanol, 298.15 K): 10.33 kcal/mol | −ΔSsolv0 ([2]; Table S6, 1-octanol, 298.15 K): 200.87 J∙mol-1·K-1 | TΔSsol0 ([2]; Table S6, 1-octanol, 303.15 K): 0.275 kcal/mol | ΔGsol0 ([2]; Table S6, 1-octanol, 303.15 K): 4.888 kcal/mol | ΔSsol0 ([2]; Table S6, 1-octanol, 303.15 K): 3.81 J∙mol-1·K-1 | ζHsolv ([2]; Table S6, 1-octanol, 303.15 K): 63.27% | ζTSsolv ([2]; Table S6, 1-octanol, 303.15 K): 36.73% | −TΔSsolv0 ([2]; Table S6, 1-octanol, 303.15 K): 14.3 kcal/mol | −ΔGsolv0 ([2]; Table S6, 1-octanol, 303.15 K): 10.34 kcal/mol | TΔSsol0 ([2]; Table S6, 1-octanol, 308.15 K): 0.272 kcal/mol | ΔGsol0 ([2]; Table S6, 1-octanol, 308.15 K): 4.89 kcal/mol | ΔSsol0 ([2]; Table S6, 1-octanol, 308.15 K): 3.70 J∙mol-1·K-1 | ζHsolv ([2]; Table S6, 1-octanol, 308.15 K): 63.27% | ζTSsolv ([2]; Table S6, 1-octanol, 308.15 K): 36.73% | −TΔSsolv0 ([2]; Table S6, 1-octanol, 308.15 K): 14.31 kcal/mol | −ΔGsolv0 ([2]; Table S6, 1-octanol, 308.15 K): 10.33 kcal/mol | TΔSsol0 ([2]; Table S6, 1-octanol, 313.15 K): 0.287 kcal/mol | ΔGsol0 ([2]; Table S6, 1-octanol, 313.15 K): 4.876 kcal/mol | ΔSsol0 ([2]; Table S6, 1-octanol, 313.15 K): 3.82 J∙mol-1·K-1 | ζHsolv ([2]; Table S6, 1-octanol, 313.15 K): 63.29% | −ΔSsolv0 ([2]; Table S6, 1-octanol, 313.15 K): 190.96 J∙mol-1·K-1 | ΔHsol0 [2, 3]: 5.16 kcal/mol | −ΔHsolv0 [2, 3]: 24.64 kcal/mol | TΔSsol0 ([2]; Table S6, ethanol, 293.15 K): 2.964 kcal/mol | ΔGsol0 ([2]; Table S6, ethanol, 293.15 K): 3.944 kcal/mol | ΔSsol0 ([2]; Table S6, ethanol, 293.15 K): 42.29 J∙mol-1·K-1 | ζHsolv ([2]; Table S6, ethanol, 293.15 K): 66.34% | TΔSsol0 ([2]; Table S6, ethanol, 298.15 K): 3.023 kcal/mol | ΔGsol0 ([2]; Table S6, ethanol, 298.15 K): 3.872 kcal/mol | ΔSsol0 ([2]; Table S6, ethanol, 298.15 K): 42.43 J∙mol-1·K-1 | ζTSsolv ([2]; Table S6, ethanol, 298.15 K): 33.54% | −ΔGsolv0 ([2]; Table S6, ethanol, 298.15 K): 11.34 kcal/mol | TΔSsol0 ([2]; Table S6, ethanol, 303.15 K): 3.081 kcal/mol | ΔGsol0 ([2]; Table S6, ethanol, 303.15 K): 3.826 kcal/mol | ΔSsol0 ([2]; Table S6, ethanol, 303.15 K): 42.52 J∙mol-1·K-1 | ζTSsolv ([2]; Table S6, ethanol, 303.15 K): 33.43% | −TΔSsolv0 ([2]; Table S6, ethanol, 303.15 K): 11.5 kcal/mol | −ΔGsolv0 ([2]; Table S6, ethanol, 303.15 K): 11.4 kcal/mol | −ΔSsolv0 ([2]; Table S6, ethanol, 303.15 K): 158.70 J∙mol-1·K-1 | TΔSsol0 ([2]; Table S6, ethanol, 308.15 K): 3.136 kcal/mol | ΔGsol0 ([2]; Table S6, ethanol, 308.15 K): 3.772 kcal/mol | ΔSsol0 ([2]; Table S6, ethanol, 308.15 K): 42.56 J∙mol-1·K-1 | ζTSsolv ([2]; Table S6, ethanol, 308.15 K): 33.32% | −TΔSsolv0 ([2]; Table S6, ethanol, 308.15 K): 11.44 kcal/mol | −ΔGsolv0 ([2]; Table S6, ethanol, 308.15 K): 11.45 kcal/mol | TΔSsol0 ([2]; Table S6, ethanol, 313.15 K): 3.162 kcal/mol | ΔGsol0 ([2]; Table S6, ethanol, 313.15 K): 3.745 kcal/mol | ΔSsol0 ([2]; Table S6, ethanol, 313.15 K): 42.24 J∙mol-1·K-1 | ζTSsolv ([2]; Table S6, ethanol, 313.15 K): 33.27% | −TΔSsolv0 ([2]; Table S6, ethanol, 313.15 K): 11.42 kcal/mol | −ΔGsolv0 ([2]; Table S6, ethanol, 313.15 K): 11.48 kcal/mol | ΔHsol0 [2, 4]: 6.91 kcal/mol | −ΔHsolv0 [2, 4]: 22.9 kcal/mol | TΔSsol0 ([2]; Table S6, n-hexane, 293.15 K): 3.537 kcal/mol
